Measurements as given in paper PMC5417072 (Anticancer research, 2016).

Target: SIRT2 (sirtuin-2) (Homo sapiens, UniProt Q8IXJ6)
Experiment: in vitro enzymatic assay
Format: biochemical

Chain of SIRT2 (sirtuin-2) (Q8IXJ6 2-389): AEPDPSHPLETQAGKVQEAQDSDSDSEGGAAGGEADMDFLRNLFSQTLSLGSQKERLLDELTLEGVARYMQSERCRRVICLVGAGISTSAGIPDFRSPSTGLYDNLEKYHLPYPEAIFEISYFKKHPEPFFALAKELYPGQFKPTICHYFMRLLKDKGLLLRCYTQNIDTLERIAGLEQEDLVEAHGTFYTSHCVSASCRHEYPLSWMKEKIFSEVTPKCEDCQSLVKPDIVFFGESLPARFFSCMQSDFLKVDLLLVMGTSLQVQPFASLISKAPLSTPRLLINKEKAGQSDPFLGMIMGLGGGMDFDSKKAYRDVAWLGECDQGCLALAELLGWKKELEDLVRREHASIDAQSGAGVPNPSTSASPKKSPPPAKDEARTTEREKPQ

Work on `COC(=O)[C@H](CCC(=O)Nc1cccc2c1ccn2Cc1cccc(C(N)=O)c1)NC(=O)OCc1ccccc1` [compound 6, (S)-Methyl 2-(((benzyloxy)carbonyl)amino)-5-((1-(3-carbamo-ylbenzyl)-1H-indol-4-yl)amino)-5-oxopentanoate] yielded an IC50 of 33 µM.
